Assay [1] concerns the target PSA (Homo sapiens, UniProt P07288). In words: Kinetic parameters of fluorescent (AMC) PSA peptide substrates, Lineweaver Burke plots. In kind it is biochemical. The note with it: PSA 10 μg/ml, AMC-coupled peptide. The method, then: These peptides were then incubated with PSA (10 μg/ml) and Michaelis Menton kinetic parameters determined using Lineweaver Burke plots, Table 3. In this study, Kcat/Km ratios were calculated in order to rank peptides. Newly synthesized peptides contained an acetyl protecting group (Ac) at the amino terminus, whereas the test peptide contained the protecting group morpholinylcarbonyl (Mu).

Assay [2] concerns the target sarcoplasmic reticulum (SR) and endoplasmic reticulum (ER) Ca2+-ATPase (SERCA) pump. The note with it: read-out: apparent dissociation constant; cited from earlier work.

Among the data in US8957016B2, “Tumor activated prodrugs” (Genspera, Inc., priority 2006, dated 2015) are kcat, Km and Kd values, retold here.

For orientation: kcat means the number of substrate molecules converted per active site and unit of time at saturation. The Km is the concentration of substrate that gives half-maximal velocity.

Like-named read-outs stand apart in the source and are kept apart here. *1 amine or outer side, *2 acyl side, *3 side chain or, on linkers, in order; H or OH if unused. Where a SMILES comes first, the peptide text is derived from it. [ ]: non-standard residue; d: D form. The star is where a group is joined. AMC = Cc1cc(=O)oc2cc(N*)ccc12; Morpholide = C1CN(*)CCO1; CO = O=C([*:1])[*:2]

PSA, sequence (P07288 25-261): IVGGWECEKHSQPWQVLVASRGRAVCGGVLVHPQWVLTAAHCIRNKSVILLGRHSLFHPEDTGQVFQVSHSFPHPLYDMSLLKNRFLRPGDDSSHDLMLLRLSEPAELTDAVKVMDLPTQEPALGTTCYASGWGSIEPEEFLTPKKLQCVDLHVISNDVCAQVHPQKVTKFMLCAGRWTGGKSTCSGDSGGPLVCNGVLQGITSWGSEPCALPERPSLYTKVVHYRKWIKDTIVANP

For `CC(=O)NCC(=O)N[C@@H](CCCCN)C(=O)N[C@@H](CO)C(=O)N[C@@H](CCC(N)=O)C(=O)N[C@@H](Cc1ccc(O)cc1)C(=O)N[C@@H](CCC(N)=O)C(=O)Nc1ccc2c(C)cc(=O)oc2c1` [Ac-GKSQYQ-AMC] (Ac-GKSQYQ-{AMC}), in assay [1], the kcat came out at 0.09 s⁻¹. Besides, the Km in assay [1] (read-out: Km) was found to be 343 µM.

For `Cc1cc(=O)oc2cc(NC(=O)[C@H](CCC(N)=O)NC(=O)[C@H](CC(C)C)NC(=O)[C@H](CCCCN)NC(=O)[C@H](CO)NC(=O)[C@H](CO)NC(=O)[C@H](Cc3c[nH]cn3)NC(=O)N3CCOCC3)ccc12` [Mu-HSSKLQ-AMC, reference compound] ({Morpholide-CO}-HSSKLQ-{AMC}), the kcat in assay [1] is 0.011 s⁻¹.

`CC(=O)NCC(=O)N[C@H](CO)C(=O)N[C@@H](C)C(=O)N[C@@H](CCCCN)C(=O)N[C@@H](Cc1ccc(O)cc1)C(=O)N[C@@H](CCC(N)=O)C(=O)Nc1ccc2c(C)cc(=O)oc2c1` [Ac-GsAKYQ-AMC] (Ac-G[dS]AKYQ-{AMC}): in assay [1], the Km stood at 653 µM and the kcat came out at 0.143 s⁻¹.

Turning to `CC(=O)NCC(=O)N[C@@H](CO)C(=O)N[C@@H](CO)C(=O)N[C@@H](CCCCN)C(=O)N[C@@H](Cc1ccccc1)C(=O)N[C@@H](CCC(N)=O)C(=O)Nc1ccc2c(C)cc(=O)oc2c1` [Ac-GSSKFQ-AMC] (Ac-GSSKFQ-{AMC}), in assay [1], the Km is 666 µM and the kcat was determined as 0.057 s⁻¹.

As for `C/C=C(/C)C(=O)O[C@H]1C(C)=C2[C@H]([C@@H]1OC(=O)CCCCCCC)[C@@](C)(OC(C)=O)C[C@H](OC(=O)CCC)[C@@]1(O)[C@H]2OC(=O)[C@@]1(C)O` [Thapsigargin], the Kd in assay [2] is at most 2.2 pM.

For `CC(=O)NCC(=O)N[C@@H](CO)C(=O)N[C@@H](CO)C(=O)N[C@@H](CCCCN)C(=O)N[C@@H](Cc1ccc(O)cc1)C(=O)N[C@@H](CCC(N)=O)C(=O)Nc1ccc2c(C)cc(=O)oc2c1` [Ac-GSSKYQ-AMC] (Ac-GSSKYQ-{AMC}), in assay [1], the Km was 500 µM and the kcat was found to be 0.113 s⁻¹.
